# ChEMBL document CHEMBL1201862, “PubChem BioAssay data set” (2004)
#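 Dose response: 5 concentrations. Exposure: 48 h. Format: 96-well plates. Endpoint: linear interpolation; highest concentration if not reached. At the GI50, growth is halved.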 Active and inactive are the calls of the source. No stated cut-off is given here; in the data, active = GI50 up to about 1.1 µM and inactive = higher.
# Legend:
# Test in all cases: growth of human tumour cells (NCI), 48 h
# MOLT-4 = test system: MOLT-4
# SK-MEL-28 = test system: SK-MEL-28
# COLO 205 = test system: COLO 205
# SF-295 = test system: SF-295
# NCI-H23 = test system: NCI-H23
# SNB-19 = test system: SNB-19
# HCT-15 = test system: HCT-15
# EKVX = test system: EKVX
# TK-10 = test system: TK-10
# RXF 393 = test system: RXF 393
# LOX IMVI = test system: LOX IMVI
# OVCAR-4 = test system: OVCAR-4
# T47D = test system: T47D
# OVCAR-3 = test system: OVCAR-3
# BT-549 = test system: BT-549
# MDA-MB-435 = test system: MDA-MB-435
# CAKI-1 = test system: CAKI-1
# HCT-116 = test system: HCT-116
# KM12 = test system: KM12
# NCI-H226 = test system: NCI-H226
# NCI/ADR-RES = test system: NCI/ADR-RES
# MCF7 = test system: MCF7
# OVCAR-8 = test system: OVCAR-8
# SR = test system: SR
# HL-60 = test system: HL-60
# SN12C = test system: SN12C
# MDA-N = test system: MDA-N
# CCRF-CEM = test system: CCRF-CEM
# RPMI-8226 = test system: RPMI-8226
# SK-MEL-5 = test system: SK-MEL-5
# PC-3 = test system: PC-3
# UO-31 = test system: UO-31
# UACC-257 = test system: UACC-257
# Hs-578T = test system: Hs-578T
# SF-268 = test system: SF-268
# ACHN = test system: ACHN
# SNB-75 = test system: SNB-75
# M14 = test system: M14
# DU-145 = test system: DU-145
# NCI-H522 = test system: NCI-H522
# U-251 = test system: U-251
# Malme-3M = test system: Malme-3M
# HCC 2998 = test system: HCC 2998
# 786-0 = test system: 786-0
# UACC-62 = test system: UACC-62
# SF-539 = test system: SF-539
# A549 = test system: A549
# SW-620 = test system: SW-620
# SK-MEL-2 = test system: SK-MEL-2
# SK-OV-3 = test system: SK-OV-3
# OVCAR-5 = test system: OVCAR-5
# HOP-62 = test system: HOP-62
# HT-29 = test system: HT-29
# IGROV-1 = test system: IGROV-1
# NCI-H460 = test system: NCI-H460
# A498 = test system: A498
# K562 = test system: K562
# HOP-92 = test system: HOP-92
smiles,measurement,setting,value
CCN(CC)C(=O)N1CN(c2ccccc2)C2(CCN(CCCC3(c4ccc(F)cc4)OCCO3)CC2)C1=O,GI50,MOLT-4,10.4 µM (inactive)
same,GI50,SK-MEL-28,13.8 µM (inactive)
same,GI50,COLO 205,3.13 µM (inactive)
same,GI50,SF-295,25.4 µM (inactive)
same,GI50,NCI-H23,16.1 µM (inactive)
same,GI50,SNB-19,30.3 µM (inactive)
same,GI50,HCT-15,15.2 µM
same,GI50,EKVX,25.9 µM (inactive)
same,GI50,TK-10,17.5 µM (inactive)
same,GI50,RXF 393,14.7 µM (inactive)
same,GI50,LOX IMVI,12.7 µM (inactive)
same,GI50,OVCAR-4,22.4 µM (inactive)
same,GI50,T47D,5.9 µM (inactive)
same,GI50,OVCAR-3,16.4 µM (inactive)
same,GI50,BT-549,12.5 µM (inactive)
same,GI50,MDA-MB-435,18.6 µM (inactive)
same,GI50,CAKI-1,> 100 µM (inactive)
same,GI50,HCT-116,11.7 µM (inactive)
same,GI50,KM12,16.5 µM (inactive)
same,GI50,NCI-H226,30.5 µM (inactive)
same,GI50,NCI/ADR-RES,23.6 µM (inactive)
same,GI50,MCF7,4.75 µM (inactive)
same,GI50,OVCAR-8,19.8 µM (inactive)
same,GI50,SR,11.6 µM (inactive)
same,GI50,HL-60,12.7 µM (inactive)
same,GI50,SN12C,16.9 µM (inactive)
same,GI50,MDA-N,19.1 µM (inactive)
same,GI50,CCRF-CEM,13.9 µM (inactive)
same,GI50,RPMI-8226,12.9 µM (inactive)
same,GI50,SK-MEL-5,12.9 µM (inactive)
same,GI50,PC-3,17.5 µM (inactive)
same,GI50,UO-31,18.4 µM (inactive)
same,GI50,UACC-257,12.4 µM (inactive)
same,GI50,Hs-578T,16.3 µM (inactive)
same,GI50,SF-268,20.6 µM (inactive)
same,GI50,ACHN,> 10 µM (inactive)
same,GI50,SNB-75,19.7 µM (inactive)
same,GI50,M14,40.2 µM (inactive)
same,GI50,DU-145,12.2 µM (inactive)
same,GI50,NCI-H522,13.7 µM (inactive)
same,GI50,U-251,16.6 µM (inactive)
same,GI50,Malme-3M,19.1 µM (inactive)
same,GI50,HCC 2998,14.5 µM (inactive)
same,GI50,786-0,18.6 µM (inactive)
same,GI50,UACC-62,17.4 µM (inactive)
same,GI50,SF-539,16.6 µM (inactive)
same,GI50,A549,29.3 µM (inactive)
same,GI50,SW-620,18 µM (inactive)
same,GI50,SK-MEL-2,14.8 µM (inactive)
same,GI50,SK-OV-3,24.4 µM (inactive)
same,GI50,OVCAR-5,> 10 µM (inactive)
same,GI50,HOP-62,4.26 µM (inactive)
Cc1cn([C@H]2C[C@@H]3[C@@H](COC(CCl)N3O)O2)c(=O)[nH]c1=O (some centres not stated),GI50,MOLT-4,> 100 µM (inactive)
same,GI50,SK-MEL-28,> 100 µM (inactive)
same,GI50,COLO 205,> 100 µM (inactive)
same,GI50,SF-295,> 100 µM (inactive)
same,GI50,SNB-19,> 100 µM (inactive)
same,GI50,HCT-15,> 100 µM
same,GI50,EKVX,> 100 µM (inactive)
same,GI50,TK-10,> 100 µM (inactive)
same,GI50,RXF 393,> 100 µM (inactive)
same,GI50,LOX IMVI,> 100 µM (inactive)
same,GI50,OVCAR-4,> 100 µM (inactive)
same,GI50,T47D,> 100 µM (inactive)
same,GI50,OVCAR-3,> 100 µM (inactive)
same,GI50,BT-549,> 100 µM (inactive)
same,GI50,MDA-MB-435,> 100 µM (inactive)
same,GI50,HT-29,> 100 µM (inactive)
same,GI50,CAKI-1,> 100 µM (inactive)
same,GI50,HCT-116,> 100 µM (inactive)
same,GI50,KM12,> 100 µM (inactive)
same,GI50,NCI-H226,> 100 µM (inactive)
same,GI50,NCI/ADR-RES,> 100 µM (inactive)
same,GI50,MCF7,> 100 µM (inactive)
same,GI50,OVCAR-8,> 100 µM (inactive)
same,GI50,SR,> 100 µM (inactive)
same,GI50,HL-60,> 100 µM (inactive)
same,GI50,SN12C,> 100 µM (inactive)
same,GI50,MDA-N,> 100 µM (inactive)
same,GI50,CCRF-CEM,> 100 µM (inactive)
same,GI50,RPMI-8226,> 100 µM (inactive)
same,GI50,SK-MEL-5,> 100 µM (inactive)
same,GI50,PC-3,> 100 µM (inactive)
same,GI50,UO-31,> 100 µM (inactive)
same,GI50,UACC-257,> 100 µM (inactive)
same,GI50,Hs-578T,> 100 µM (inactive)
same,GI50,SF-268,> 100 µM (inactive)
same,GI50,IGROV-1,> 100 µM (inactive)
same,GI50,SNB-75,87.9 µM (inactive)
same,GI50,M14,> 100 µM (inactive)
same,GI50,DU-145,> 100 µM (inactive)
same,GI50,NCI-H460,> 100 µM (inactive)
same,GI50,NCI-H522,> 100 µM (inactive)
same,GI50,U-251,> 100 µM (inactive)
same,GI50,Malme-3M,41.3 µM (inactive)
same,GI50,A498,> 100 µM (inactive)
same,GI50,786-0,> 100 µM (inactive)
same,GI50,UACC-62,> 100 µM (inactive)
same,GI50,SF-539,> 100 µM (inactive)
same,GI50,A549,> 100 µM (inactive)
same,GI50,SW-620,> 100 µM (inactive)
same,GI50,K562,> 100 µM (inactive)
same,GI50,SK-MEL-2,> 100 µM (inactive)
same,GI50,SK-OV-3,> 100 µM (inactive)
same,GI50,OVCAR-5,> 100 µM (inactive)
same,GI50,HOP-62,> 100 µM (inactive)
COc1cc(S(=O)(=O)Nc2ccc(-c3csc(N4C(=O)CSC4c4cccc(Oc5ccccc5)c4)n3)cc2)ccc1Cl (configuration not stated),GI50,MOLT-4,52 µM (inactive)
same,GI50,SK-MEL-28,23 µM (inactive)
same,GI50,COLO 205,29.4 µM (inactive)
same,GI50,SF-295,65.8 µM (inactive)
same,GI50,NCI-H23,40.4 µM (inactive)
same,GI50,SNB-19,77.8 µM (inactive)
same,GI50,HCT-15,61.7 µM
same,GI50,EKVX,44.2 µM (inactive)
same,GI50,RXF 393,16.7 µM (inactive)
same,GI50,LOX IMVI,32.7 µM (inactive)
same,GI50,OVCAR-4,52.6 µM (inactive)
same,GI50,T47D,7.48 µM (inactive)
same,GI50,OVCAR-3,64.3 µM (inactive)
same,GI50,BT-549,23.7 µM (inactive)
same,GI50,MDA-MB-435,33.5 µM (inactive)
same,GI50,HT-29,47 µM (inactive)
same,GI50,CAKI-1,> 100 µM (inactive)
same,GI50,HCT-116,29.9 µM (inactive)
same,GI50,KM12,35.2 µM (inactive)
same,GI50,NCI-H226,32.1 µM (inactive)
same,GI50,NCI/ADR-RES,> 100 µM (inactive)
same,GI50,MCF7,20.6 µM (inactive)
same,GI50,OVCAR-8,47 µM (inactive)
same,GI50,SR,33.7 µM (inactive)
same,GI50,HL-60,21.1 µM (inactive)
same,GI50,SN12C,61.4 µM (inactive)
same,GI50,MDA-N,23.9 µM (inactive)
same,GI50,CCRF-CEM,23.8 µM (inactive)
same,GI50,RPMI-8226,39.2 µM (inactive)
same,GI50,SK-MEL-5,32.8 µM (inactive)
same,GI50,PC-3,32.7 µM (inactive)
same,GI50,UO-31,47.5 µM (inactive)
same,GI50,Hs-578T,27.4 µM (inactive)
same,GI50,SF-268,24.3 µM (inactive)
same,GI50,IGROV-1,50.7 µM (inactive)
same,GI50,ACHN,> 100 µM (inactive)
same,GI50,SNB-75,58.1 µM (inactive)
same,GI50,M14,53 µM (inactive)
same,GI50,DU-145,48.4 µM (inactive)
same,GI50,NCI-H522,24.2 µM (inactive)
same,GI50,HOP-92,46.7 µM (inactive)
same,GI50,Malme-3M,43.4 µM (inactive)
same,GI50,A498,59 µM (inactive)
same,GI50,786-0,46.9 µM (inactive)
same,GI50,UACC-62,36.9 µM (inactive)
same,GI50,SF-539,31.9 µM (inactive)
same,GI50,SW-620,43.8 µM (inactive)
same,GI50,K562,31.9 µM (inactive)
same,GI50,SK-OV-3,71 µM (inactive)
same,GI50,OVCAR-5,> 100 µM (inactive)
same,GI50,HOP-62,74.3 µM (inactive)
